Activity calls are given as the source filed them. No cut-off for these calls is given here.
Columns and labels:
[1] = tested on: Mus musculus; assay: Anti-fibrotic activity in bleomycin-induced C57BL/6 mouse model of pulmonary fibrosis assessed as reduction in p-STAT3 level at 60 mg/kg, po pretreated with bleomycin followed by compound addition once daily on day 7 to 14; format: functional, organism-based; settings: time 7.0 day
[2] = tested on: Mus musculus; assay: Anti-fibrotic activity in bleomycin-induced C57BL/6 mouse model of pulmonary fibrosis assessed as increase in E-cadherin level at 60 mg/kg, po pretreated with bleomycin followed by compound addition once daily on day 7 to 14; format: functional, organism-based; settings: time 7.0 day
[3] = tested on: Mus musculus; assay: Anti-fibrotic activity in bleomycin-induced C57BL/6 mouse model of pulmonary fibrosis assessed as reduction in collagen I level at 60 mg/kg, po pretreated with bleomycin followed by compound addition once daily on day 7 to 14; format: functional, organism-based; settings: time 7.0 day
[4] = tested on: Mus musculus; assay: Anti-fibrotic activity in bleomycin-induced C57BL/6 mouse model of pulmonary fibrosis assessed as reduction in hydroxyproline level at 60 mg/kg, po pretreated with bleomycin followed by compound addition once daily on day 7 to 14; format: functional, organism-based; settings: time 7.0 day
[5] = tested on: Mus musculus; assay: Anti-fibrotic activity in bleomycin-induced C57BL/6 mouse model of pulmonary fibrosis assessed as reduction in ratio of CD69+CD4+ T cells at 30 mg/kg, po administered once daily by flow cytometry analysis (reference value: 9.05%); format: functional, T-cell; set-up: scale not given: the % may be the effect or the level left
[6] = Clearance in Sprague-Dawley rat at 2 mg/kg, iv measured upto 24 hrs; format: ADME, organism-based; settings: in vivo
[7] = tested on: Mus musculus; assay: Anti-fibrotic activity in bleomycin-induced C57BL/6 mouse model of pulmonary fibrosis assessed as reduction in collagen I level at 30 to 60 mg/kg, po pretreated with bleomycin for 1 day followed by compound addition once daily for 22 days by immunohistochemical analysis; format: functional, organism-based; settings: dose 30-60 mg/kg, time 22.0 day
[8] = Potency index, ratio of NIF IC50 to test compound IC50 for antiproliferative activity against […] cells; format: functional, NIH3T3
[9] = biological target: Signal transducer and activator of transcription 3 (Homo sapiens) (UniProt P40763); assay: Binding affinity to STAT3 in human A549 cells assessed as STAT3 stabilization incubated for 1 hr by CETSA; format: cell-based
[10] = tested on: Mus musculus; assay: Anti-fibrotic activity in bleomycin-induced C57BL/6 mouse model of pulmonary fibrosis assessed as […] in E-Cadherin expression level at 30 to 60 mg/kg, po pretreated with bleomycin for 1 day followed by compound addition once daily for 22 days by Western blot analysis; format: functional, organism-based; settings: dose 30-60 mg/kg, time 22.0 day
[11] = Tmax in Sprague-Dawley rat at 2 mg/kg, iv measured upto 24 hrs; format: ADME, organism-based; settings: in vivo
[12] = tested on: Mus musculus; assay: Anti-fibrotic activity in bleomycin-induced C57BL/6 mouse model of pulmonary fibrosis assessed as reduction in ratio of dendritic cells at 30 mg/kg, po administered once daily by flow cytometry analysis (reference value: 20.21%); format: functional; set-up: scale not given: the % may be the effect or the level left
[13] = AUC(0 to infinity) in Sprague-Dawley rat at 20 mg/kg, po measured upto 24 hrs; format: ADME, organism-based; set-up: dose 20 mg/kg, time < 24 hrs, route po; settings: in vivo
[14] = Toxicity in C57BL/6 mouse assessed as effect on spleen tissue at 30 to 60 mg/kg, po administered once daily; format: organism-based; settings: in vivo, dose 30-60 mg/kg
[15] = Toxicity in C57BL/6 mouse assessed as effect on liver tissue at 30 to 60 mg/kg, po administered once daily; format: organism-based; settings: in vivo, dose 30-60 mg/kg
[16] = tested on: NIH3T3; assay: Inhibition of TGF-beta1 induced NIH-3T3 cells activation assessed as effect on alpha-SMA at 6 uM preincubated with TGF-beta1 for 1 hr followed by compound addition and measured after 24 hrs by DAPI staining based fluorescence microscopic analysis; format: functional, cell-based; settings: Mus musculus
[17] = tested on: Mus musculus; assay: Anti-fibrotic activity in bleomycin-induced C57BL/6 mouse model of pulmonary fibrosis assessed as decrease in collagen level by measuring hydroxyproline level at 30 to 60 mg/kg, po pretreated with bleomycin for 1 day followed by compound addition once daily for 21 days; format: functional, organism-based; settings: dose 30-60 mg/kg, time 21.0 day
[18] = tested on: Mus musculus; assay: Anti-fibrotic activity in bleomycin-induced C57BL/6 mouse model of pulmonary fibrosis assessed as reduction in p-STAT3 protein level at 30 to 60 mg/kg, po pretreated with bleomycin for 1 day followed by compound addition once daily for 22 days by Western blot analysis; format: functional, organism-based; settings: dose 30-60 mg/kg, time 22.0 day
[19] = tested on: NIH3T3; assay: Inhibition of TGF-beta1 induced NIH-3T3 cells activation assessed as effect on collagen I at 6 uM preincubated with TGF-beta1 for 1 hr followed by compound addition and measured after 24 hrs by DAPI staining based fluorescence microscopic analysis; format: functional, cell-based; settings: Mus musculus
[20] = tested on: NIH3T3; assay: Inhibition of TGF-beta1 induced NIH-3T3 cells activation assessed as reduction in alpha-SMA level at 6 uM preincubated with TGF-beta1 for 1 hr followed by compound addition and measured after 24 hrs by DAPI staining based fluorescence microscopic analysis; format: functional, cell-based; settings: Mus musculus
[21] = Oral bioavailability in Sprague-Dawley rat at 20 mg/kg measured upto 24 hrs; format: ADME, organism-based; settings: in vivo
[22] = tested on: Mus musculus; assay: Anti-fibrotic activity in bleomycin-induced C57BL/6 mouse model of pulmonary fibrosis assessed as reduction in collagen deposition at 30 to 60 mg/kg, po pretreated with bleomycin for 1 day followed by compound addition once daily for 22 days by Masson't trichrome staining based analysis; format: functional; set-up: scale not given: the % may be the effect or the level left; settings: dose 30-60 mg/kg, time 22 day
[23] = Inhibition of TGF-beta1 induced human A549 cells migration assessed as reduction in wound closure rate at 6 uM preincubated with TGF-beta1 for 1 hr followed by compound addition and measured after 24 hrs by wound healing analysis (reference value: 46.52 to 75.83 %); format: functional
[24] = biological target: Signal transducer and activator of transcription 3 (Homo sapiens) (UniProt P40763); assay: Binding affinity to STAT3 in […] cells assessed as STAT3 stabilization incubated for 1 hr by CETSA; format: cell-based; settings: NIH3T3
[25] = tested on: Mus musculus; assay: Anti-fibrotic activity in bleomycin-induced C57BL/6 mouse model of pulmonary fibrosis assessed as reduction in ratio of CD4+CD69+ T cells at 60 mg/kg, po pretreated with bleomycin followed by compound addition once daily on day 7 to 14 by flow cytometry analysis (reference value: 11.56%); format: functional, T-cell; set-up: scale not given: the % may be the effect or the level left; settings: time 7 day
[26] = tested on: Mus musculus; assay: Anti-fibrotic activity in bleomycin-induced C57BL/6 mouse model of pulmonary fibrosis assessed as reduction in ratio of CD69+CD4+ T cells at 60 mg/kg, po administered once daily by flow cytometry analysis (reference value: 9.05%); format: functional, T-cell; set-up: scale not given: the % may be the effect or the level left
[27] = Cmax in Sprague-Dawley rat at 2 mg/kg, iv measured upto 24 hrs; format: ADME, organism-based; set-up: time < 24 hrs, dose 2 mg/kg, route iv; settings: in vivo
[28] = tested on: A549; assay: Inhibition of TGF-beta1 induced epithelial-mesenchymal transition in human A549 cells assessed as reduction in E-cadherin protein level at 6 uM preincubated with TGF-beta1 for 1 hr followed by compound addition and measured after 24 hrs by immunofluorescence staining based analysis; format: functional, cell-based
[29] = Tmax in Sprague-Dawley rat at 20 mg/kg, po measured upto 24 hrs; format: ADME, organism-based; settings: in vivo
[30] = tested on: Mus musculus; assay: Anti-fibrotic activity in bleomycin-induced C57BL/6 mouse model of pulmonary fibrosis assessed as reduction in alpha-SMA level at 30 to 60 mg/kg, po pretreated with bleomycin for 1 day followed by compound addition once daily for 22 days by immunohistochemical analysis; format: functional, organism-based; settings: dose 30-60 mg/kg, time 22.0 day
[31] = tested on: Mus musculus; assay: Anti-fibrotic activity in bleomycin-induced C57BL/6 mouse model of pulmonary fibrosis assessed as reduction in alpha-SMA level at 60 mg/kg, po pretreated with bleomycin followed by compound addition once daily on day 7 to 14; format: functional, organism-based; settings: time 7.0 day

Sequence of Signal transducer and activator of transcription 3 (Homo sapiens) (P40763 whole entry): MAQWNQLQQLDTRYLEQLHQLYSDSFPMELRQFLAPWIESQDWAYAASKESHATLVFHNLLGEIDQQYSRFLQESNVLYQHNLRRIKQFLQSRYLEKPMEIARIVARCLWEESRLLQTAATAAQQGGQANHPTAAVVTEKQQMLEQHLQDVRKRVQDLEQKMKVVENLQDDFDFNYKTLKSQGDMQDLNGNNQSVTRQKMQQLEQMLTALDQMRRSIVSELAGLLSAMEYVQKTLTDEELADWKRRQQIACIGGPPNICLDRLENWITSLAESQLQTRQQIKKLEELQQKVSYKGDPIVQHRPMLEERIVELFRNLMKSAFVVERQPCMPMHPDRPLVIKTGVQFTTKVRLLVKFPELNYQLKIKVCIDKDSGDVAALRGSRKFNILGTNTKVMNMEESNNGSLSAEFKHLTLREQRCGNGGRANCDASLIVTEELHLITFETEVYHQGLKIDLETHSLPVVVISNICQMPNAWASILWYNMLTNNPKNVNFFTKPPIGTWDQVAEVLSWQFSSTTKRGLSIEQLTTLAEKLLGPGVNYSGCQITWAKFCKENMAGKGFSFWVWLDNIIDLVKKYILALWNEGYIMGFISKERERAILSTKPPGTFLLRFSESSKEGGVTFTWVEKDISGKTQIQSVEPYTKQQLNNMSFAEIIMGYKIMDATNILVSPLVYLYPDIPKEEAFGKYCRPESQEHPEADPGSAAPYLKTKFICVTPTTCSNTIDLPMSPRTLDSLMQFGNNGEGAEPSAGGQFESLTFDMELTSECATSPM

clearance [6]: 92.8 mL/min/kg | Activity [9]: Active | Tmax [11]: 4.8 min | AUC(0-inf) [13]: 1500 ng·h/mL | bioavailability [21]: 42.1% | Activity [24]: Active | Cmax [27]: 471 ng/mL | Tmax [29]: 2.17 h
SMILES: O=C(N/N=C/c1ccc([N+](=O)[O-])s1)c1ccc(OCCCCCCN2CCCCC2)cc1
Activity [1]: Active | Activity [2]: Active | Activity [3]: Active | Activity [4]: Active | Activity [5]: 4.59% | Activity [7]: Active | Ratio IC50 [8]: 5 | Activity [10]: Active | Activity [12]: 4.59% | Activity [14]: Non-Toxic | Activity [15]: Non-Toxic | inhibition [16]: Active | Activity [17]: Active | Activity [18]: Active | inhibition [19]: Active | inhibition [20]: Active | Activity [22]: 100% | inhibition at 6 µM [23]: 61.1% | Activity [25]: 2.66% | Activity [26]: 3.06% | inhibition [28]: Active | Activity [30]: Active | Activity [31]: Active

Source: ChEMBL document CHEMBL5335769, “Design, synthesis and biological evaluation of novel diarylacylhydrazones derivatives for the efficient treatment of idiopathic pulmonary fibrosis” (Eur J Med Chem, 2023)
